The source of these data is patent publication US7157453B2, “Urea substituted imidazoquinolines” (3M Innovation Properties Company, priority 1999, dated 2007).

Where a name gives a salt, the structure may show the parent alone.

For series [1], the system named is tumor necrosis factor (α). Kind of series: Cytokine Induction in Human Cells: tumor necrosis factor (α) by ELISA. As to conditions: PBMC; human PBMCs, incubated 18 to 24 hours, lowest concentration found to induce tumor necrosis factor. The class given is cell-based. From the text:
(§1) An in vitro human blood cell system was used to assess cytokine induction by compounds of the invention. Activity is based on the measurement of interferon and tumor necrosis factor (α) (IFN and TNF, respectively) secreted into culture media as described by Testerman et. al. In “Cytokine Induction by the Immunomodulators Imiquimod and S-27609”, Journal of Leukocyte Biology, 58, 365–372 (September, 1995).
(§2) Whole blood is collected by venipuncture into EDTA vacutainer tubes from healthy human donors. Peripheral blood mononuclear cells (PBMCs) are separated from whole blood by density gradient centrifugation using Histopaque®-1077 (Sigma Chemicals, St. Louis, Mo.). The PBMCs are suspended at 3–4×10^6 cells/mL in RPMI 1640 medium containing 10% fetal bovine serum, 2 mM L-glutamine and 1% penicillin/streptomycin solution (RPMI complete). The PBMC suspension is added to 48 well flat bottom sterile tissue culture plates (Costar, Cambridge, Mass. or Becton Dickinson Labware, Lincoln Park, N.J.) containing an equal volume of RPMI complete media containing test compound.
(§3) The compounds are solubilized in dimethyl sulfoxide (DMSO). The DMSO concentration should not exceed a final concentration of 1% for addition to the culture wells.
(§4) The solution of test compound is added at 60 μM to the first well containing RPMI complete and serial (three fold or ten fold) dilutions are made. The PBMC suspension is then added to the wells in an equal volume, bringing the test compound concentrations to the desired range. The final concentration of PBMC suspension is 1.5–2×10^6 cells/mL. The plates are covered with sterile plastic lids, mixed gently and then incubated for 18 to 24 hours at 37° C. in a 5% carbon dioxide atmosphere.
(§5) Following incubation the plates are centrifuged for 5–10 minutes at 1000 rpm (˜200×g) at 4° C. The cell culture supernatant is removed with a sterile polypropylene pipet and transferred to sterile polypropylene tubes. Samples are maintained at −30 to −70° C. until analysis. The samples are analyzed for interferon (α) and tumor necrosis factor (α) by ELISA
Tumor necrosis factor (α) (TNF) concentration is determined using ELISA kits available from Genzyme, Cambridge, Mass.; R&D Systems, Minneapolis, Minn.; or Pharmingen, San Diego, Calif.
(§6) The table below lists the lowest concentration found to induce interferon and the lowest concentration found to induce tumor necrosis factor for each compound.
A general note: ELISA stands for enzyme-linked immunosorbent assay.

Series [2] relates to interferon (α). Kind of series: Cytokine Induction in Human Cells: interferon (α) by ELISA. It counts as cell-based. As to conditions: PBMC; human PBMCs, incubated 18 to 24 hours, lowest concentration found to induce interferon.
Source text: as §1, §2, §3, §4, §5
Interferon (α) concentration is determined by ELISA using a Human Multi-Species kit from PBL Biomedical Laboratories, New Brunswick, N.J.
as §6

`CCCCCc1nc2c(N)nc3c(c2n1CCCCNC(=O)N1CCOCC1)CCCC3` (as salt: hydrochloride) [Example 172, N-[4-(4-amino-2-pentyl-6,7,8,9-tetrahydro-1H-imidazo[4,5-c]quinolin-1-yl)butyl]morpholine-4-carboxamide hydrochloride] came in with a melting point of 126.8 to 127.5 °C.

For the compound `CCCCCCc1nc2c(N)nc3ccccc3c2n1CCCCNC(=O)Nc1ccccc1` [Example 155, N-[4-(4-amino-2-hexyl-1H-imidazo[4,5-c]quinolin-1-yl)butyl]-N′-phenylurea], the melting point was in the range of 170.4 to 171.6 °C. The minimal effective concentration in series [1] is 10 µM. In addition, the minimal effective concentration in series [2] was 3.33 µM.

On to `Nc1nc2ccccc2c2c1nc(-c1ccccc1)n2CCCCNC(=S)Nc1cccnc1` [Example 14, N-[4-(4-Amino-2-phenyl-1H-imidazo[4,5-c]quinolin-1-yl)butyl]-N′-(3-pyridyl)thiourea], for which the melting point is 118 to 120 °C.

For the compound `CN(C(=O)NCCCCn1cnc2c(N)nc3ccccc3c21)c1ccccc1` [Example 6, N^1-[4-(4-Amino-1H-imidazo[4,5-c]quinolin-1-yl)butyl]-N-methyl-N-phenylurea], the melting point is 87 to 88 °C. This compound registered a minimal effective concentration in series [1] above 30 µM. This compound returned a minimal effective concentration in series [2] of 0.37 µM.

For the compound `CC(C)(C)OC(=O)NCCCCn1c(-c2ccccc2)nc2c(N)nc3ccccc3c21` [Example 12, tert-Butyl N-[4-(4-Amino-2-phenyl-1H-imidazo[4,5-c]quinolin-1-1)butyl]carbamate], the melting point lay in the range of 182 to 183 °C.

`CCCNC(=S)NCCCn1c(CCOC)nc2c(N)nc3ccccc3c21` [Example 156, N-{3-[4-amino-2-(2-methoxyethyl)-1H-imidazo[4,5-c]quinolin-1-yl]propyl}-N′-propylthiourea] yielded a melting point of 172 to 173 °C. This compound also had a minimal effective concentration in series [1] of 1.11 µM. Also, in series [2], the minimal effective concentration turned out to be 0.01 µM.

In turn, `Cc1nc2c(N)nc3ccccc3c2n1CCCNC(=O)OC(C)(C)C` [Example 176, tert-butyl 3-(4-amino-2-methyl-1H-imidazo[4,5-c]quinolin-1-yl)propylcarbamate] registered a melting point of 112 to 115 °C. The minimal effective concentration in series [1] is 1.11 µM. For the same compound, the minimal effective concentration in series [2] was 0.12 µM.

On to `Nc1nc2ccccc2c2c1nc(CCCOc1ccccc1)n2CCCCNC(=O)N1CCOCC1` [Example 171, N-{4-[4-amino-2-(3-phenoxypropyl)-1H-imidazo[4,5-c]quinolin-1-yl]butyl}morpholine-4-carboxamide], for which the melting point was in the range of 71.5 to 72.1 °C. Moreover, the minimal effective concentration in series [1] was found to be 10 µM. This compound also showed a minimal effective concentration in series [2] above 30 µM.

`Nc1nc2ccccc2c2c1ncn2CCCCNC(=O)N1CCOCC1` [Example 5, N^4-[4-(4-Amino-1H-imidazo[4,5-c]quinolin-1-yl)butyl]-4-morpholinecarboxamide]: the melting point was 177 to 179.5 °C. In series [1], this compound returned a minimal effective concentration above 30 µM. In addition, in series [2], the minimal effective concentration is 3.33 µM.

For `COCCc1nc2c(N)nc3ccccc3c2n1CCNC(=O)OC(C)(C)C` [Example 178, tert-butyl 2-[4-amino-2-(methoxyethyl)-1H-imidazo[4,5-c]quinolin-1-yl]ethylcarbamate], the melting point lay in the range of 173 to 175 °C. In series [1], this compound registered a minimal effective concentration of 1.11 µM. Moreover, the minimal effective concentration in series [2] worked out at 0.12 µM.

In turn, `CCCCc1nc2c(N)nc3ccccc3c2n1CCCCCCCCNC(=O)Nc1ccccc1` [Example 154, N-[8-(4-amino-2-butyl-1H-imidazo[4,5-c]quinolin-1-yl)octyl]-N′-phenylurea] gave a melting point of 153 to 155 °C. In addition, the minimal effective concentration in series [1] came to 1.11 µM. Besides, the minimal effective concentration in series [2] was determined as 0.37 µM.

With `COCCc1nc2c(N)nc3c(c2n1CCCNC(=O)N1CCOCC1)CCCC3` [Example 168, N-{3-[4-amino-2-(2-methoxyethyl)-6,7,8,9-tetrahydro-1H-imidazo[4,5-c]quinolin-1-yl]propyl}morpholine-4-carboxamide], the melting point lay within 171.8 to 173.2 °C.

Compound `Nc1nc2ccccc2c2c1nc(CCCOc1ccccc1)n2CCCNC(=O)N1CCOCC1` [Example 166, N-{3-[4-amino-2-(3-phenoxypropyl)-1H-imidazo[4,5-c]quinolin-1-yl]propyl}morpholine-4-carboxamide] gave a melting point of 198.8 to 199.9 °C.

In the case of `COc1ccc(Cc2nc3c(N)nc4ccccc4c3n2CCCCNC(N)=O)cc1` [Example 10, N-{4-[4-Amino-2-(4-methoxybenzyl)-1H-imidazo[4,5-c]quinolin-1-yl]butyl}urea], the melting point is 196 °C (dec.).

In the case of `Nc1nc2ccccc2c2c1nc(-c1ccccc1)n2CCCCNC(=O)Nc1ccc(F)cc1` [Example 15, N-[4-(4-amino-2-phenyl-1H-imidazo[4,5-c]quinolin-1-yl)butyl]-N′-(4-fluorophenyl)urea], the melting point lay in the range of 145 to 150 °C.

`Nc1nc2ccccc2c2c1ncn2CCCCNC(=O)Oc1ccc2ccccc2c1`: the melting point was 154 to 155 °C.

Consider `Nc1nc2ccccc2c2c1ncn2CCCCNC(=O)Oc1cccc2ccccc12`, for which the melting point is 89 to 92 °C.

With `CCCNC(=S)NCCCCn1c(-c2ccccc2)nc2c(N)nc3ccccc3c21` [Example 13, N-[4-(4-Amino-2-phenyl-1H-imidazo[4,5-c]quinolin-1-yl)butyl]-N′-propylthiourea], the melting point was in the range of 113 to 116 °C.

Take `CCCCc1nc2c(N)nc3c(c2n1CCCCNC(=O)NCc1ccccc1)CCCC3` [Example 133]: the minimal effective concentration in series [1] worked out at 10 µM; in series [2], 0.1 µM.

Consider `CCc1ccccc1NC(=O)NCCCCn1cnc2c(N)nc3ccccc3c21` [Example 40], for which the values for the minimal effective concentration in series [1] and in series [2] were 3.33 µM and 0.37 µM, respectively.

The compound `Cc1nc2c(N)nc3ccccc3c2n1CCCNC(=O)N1CCOCC1` [Example 167, N-[3-(4-amino-2-methyl-1H-imidazo[4,5-c]quinolin-1-yl)propyl]morpholine-4-carboxamide] registered a melting point of 226 to 228 °C.

With `CCCCc1nc2c(N)nc3c(c2n1CCCCNC(=O)NS(=O)(=O)c1ccccc1)CCCC3` [Example 137], the results for the minimal effective concentration in series [1] and in series [2] were 10 µM and 1 µM, respectively.

For the compound `Cc1ccccc1NC(=O)NCCCCn1cnc2c(N)nc3ccccc3c21` [Example 48], the minimal effective concentration in series [1] turned out to be 3.33 µM; in series [2], 0.37 µM.

For `COCCc1nc2c(N)nc3ccccc3c2n1CCCCNC(=O)N1CCCC1` [Example 122], the minimal effective concentration in series [1] is 1 µM; in series [2], 0.001 µM.

On to `CCCCc1nc2c(N)nc3ccccc3c2n1CCNC(=O)NS(=O)(=O)c1ccc(Cl)cc1` [Example 140], for which the minimal effective concentration is above 10 µM in series [1] and 10 µM in series [2].

In the case of `Nc1nc2ccccc2c2c1ncn2CCCCNC(=O)Nc1cc(Cl)cc(Cl)c1` [Example 29], the results for the minimal effective concentration in series [1] and in series [2] were 10 µM and above 30 µM, respectively.

In the case of `CCCCc1nc2c(N)nc3ccccc3c2n1CCNC(=O)NCCC` [Example 56], the minimal effective concentration in series [1] and in series [2] was 1 µM throughout.

Consider `CCCNC(=O)NCCCCn1c(CCOC)nc2c(N)nc3ccccc3c21` [Example 102], for which the values for the minimal effective concentration in series [1] and in series [2] were 1 µM and 0.001 µM, respectively.

As for `CCCCc1nc2c(N)nc3ccccc3c2n1CCNC(=O)NS(=O)(=O)c1ccc(F)cc1` [Example 139], the minimal effective concentration in series [1] and in series [2] was above 10 µM in each case.

As for `COCCc1nc2c(N)nc3ccccc3c2n1CCCCNC(=O)Nc1ccc(Cl)cc1` [Example 113], the minimal effective concentration in series [1] was 1 µM; in series [2], 0.0001 µM.

Turning to `CCCCc1nc2c(N)nc3ccccc3c2n1CCCCNC(=O)NCc1cccc(C)c1` [Example 83], the results for the minimal effective concentration in series [1] and in series [2] were 1 µM and 0.1 µM, respectively.

As to `COCCc1nc2c(N)nc3c(c2n1CCCCNC(=O)Nc1ccccc1)CCCC3` [Example 136], the minimal effective concentration in series [1] is 1 µM; in series [2], 0.0001 µM.

A word on the melting point: it is the temperature, or range, at which the solid turns liquid. As usually defined, the minimal effective concentration is the lowest level tested that produced the effect sought. A high value points to a need for much substance.
